Assay results: patent US20250123280A1, “LABEL-FREE DETECTION OF PROTEASE ACTIVITY” (OREGON HEALTH & SCIENCE UNIVERSITY, priority 2021, published 2025)
Where “and” joins values, the source holds several entries; their conditions need not be identical. Equal entries are not always repeated. Peptide text beside a SMILES is read from it. * marks the point of attachment. Fmoc = O=C(OCC1c2ccccc2-c2ccccc21)*

Target: T1, legumain (Mus musculus, UniProt O89017)
T1 construct: purchased Novus Biologicals
T1 sequence (O89017 18-325 limits assumed): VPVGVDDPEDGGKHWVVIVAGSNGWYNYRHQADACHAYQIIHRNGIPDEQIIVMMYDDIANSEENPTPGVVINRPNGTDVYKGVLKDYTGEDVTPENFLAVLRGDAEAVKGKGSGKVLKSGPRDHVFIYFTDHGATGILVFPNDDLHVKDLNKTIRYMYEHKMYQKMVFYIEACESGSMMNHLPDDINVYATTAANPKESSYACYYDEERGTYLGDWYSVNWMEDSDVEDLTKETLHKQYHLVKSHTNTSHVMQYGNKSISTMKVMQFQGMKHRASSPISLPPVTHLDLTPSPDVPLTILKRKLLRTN
Assay: Legumain assay with peptide 1 and Thioflavin T in buffer
Format: biochemical
Experimental: Legumain activation. To activate legumain, 5 μL of prolegumain solution (0.5 mg/mL in Tris buffer containing 10% glycerol) was mixed with 20 μL of activation buffer (50 mM Sodium Acetate, 100 mM NaCl, pH 4.0) and incubated at 37° C. for 2 h. It was then diluted in 225 μL of legumain assay buffer (50 mM MES, 250 mM NaCl, pH 5) to give a final legumain concentration of 10 μg/mL and immediately used in the assay.
Legumain assay. In a typical assay, peptide 1 was first dissolved in ultrapure water containing 25% DMSO at a peptide concentration of 10 mg/mL. It was then diluted in phosphate-buffered saline (PBS, pH 7.4, 10 mM) to give a peptide concentration of 2 mg/mL. Next, 50 μL of the peptide solution was mixed with 50 μL of MES buffer (50 mM MES, 250 mM NaCl, pH 5) containing activated legumain at different concentrations (0-2000 ng/mL) in a 96 well plate and the plate was incubated at 37° C. for 2 h. Note that the final peptide concentration was 1 mg/mL and final legumain concentrations were between 0 and 1000 ng/mL. Finally, 10 μL of ThT solution (1 mM, in ultrapure water) was added to each well, and ThT fluorescence was measured using a Spark 20M microplate reader (Tecan) after 15-30 min incubation at room temperature.
In the peptide concentration experiment, appropriate amounts of peptide 1 stock solution (10 mg/mL) were diluted in PBS and mixed with the MES buffer containing legumain, as described above, to give the final peptide concentrations between 0.05 and 1 mg/mL in the assay. In kinetic studies, ThT solution was mixed with the peptide immediately before the addition of activated legumain, and the plate was incubated in a Spark 20M microplate reader (Tecan) at 37° C. for 3 hours, and ThT fluorescence was recorded every 4 minutes. For the inhibitor experiment, the legumain inhibitor, RR-11a, was first dissolved in DMSO (1 mM), and appropriate amounts of inhibitor were incubated with legumain for about 1.0 hour at room temperature in 96 well plates. Finally, the legumain solutions incubated with different amounts of inhibitor were mixed with the peptide 1 solution, and the assay was performed as described above. For the experiments in plasma, 10 μL or 20 μL of PBS in the wells were replaced with human plasma to achieve final plasma concentrations of 10% and 20%, respectively.

fluorescence intensity at 24 hours compared with the intensity at two hours (1000 ng/mL legumain): about 2.5 | enhancement in the ThT emission intensity (1000 ng/mL legumain, about two hours, peptide 1 1 mg/mL, ThT 90 μM): about 32 fold | enhancement in ThT emission (1 mg/mL peptide concentration, legumain 500 ng/mL): 28 fold | fluorescence enhancement (legumain 10.0 ng/mL, about two hours, ThT 90 μM): about 1.3 fold | fluorescence enhancement (legumain 25.0 ng/mL, about two hours, ThT 90 μM): about 3 fold | limit of detection (LOD) (legumain, buffer): about 12 ng/mL and 0.21 nM | limit of quantification (LOQ) (legumain, buffer): about 25 ng/mL and 0.45 nM | enhancement in the ThT fluorescence in the absence of legumain (no legumain, up to the highest peptide concentration (1.0 mg/mL)): no significant enhancement | enhancement in the ThT emission (peptide 1 1.0 mg/mL, ThT 90 μM, no legumain): 1.4 fold | ThT emission intensity increase (peptide concentration below 0.25 mg/mL, legumain 500 ng/mL): 1.3-1.4 fold
Structure (SMILES): C[C@H](NC(=O)[C@H](C)NC(=O)[C@H](CCC(=O)O)NC(=O)[C@H](Cc1ccccc1)NC(=O)[C@H](CCCCN)NC(=O)[C@H](Cc1ccccc1)NC(=O)OCC1c2ccccc2-c2ccccc21)C(=O)N[C@@H](CC(N)=O)C(=O)NCC(=O)N[C@@H](CCC(=O)O)C(=O)N[C@@H](CCC(=O)O)C(=O)NCC(=O)N[C@@H](CO)C(=O)NCC(=O)N[C@@H](CCC(=O)O)C(=O)N[C@@H](CCC(=O)O)C(=O)O [peptide 1] (Fmoc-FKFEAANGEEGSGEE-OH; C-terminus assumed)
